Laboratory results published in ChEMBL document CHEMBL1201862, “PubChem BioAssay data set” (2004).
pIC50: −log10 of the molar value. The source made the active and inactive calls.

Columns and labels:
[1] = target: G-protein coupled receptor 55 (Homo sapiens, UniProt Q9Y2T6); assay: GPR55 antagonists blocking LPI-driven arrestin recruitment, primary screen, imaging, U2OS, beta-arrestin-GFP, LPI agonist (AID 2013); format: functional;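 note: antagonist potency measured as reduced agonist-driven arrestin aggregation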
G-protein coupled receptor 55, sequence (Q9Y2T6 whole entry): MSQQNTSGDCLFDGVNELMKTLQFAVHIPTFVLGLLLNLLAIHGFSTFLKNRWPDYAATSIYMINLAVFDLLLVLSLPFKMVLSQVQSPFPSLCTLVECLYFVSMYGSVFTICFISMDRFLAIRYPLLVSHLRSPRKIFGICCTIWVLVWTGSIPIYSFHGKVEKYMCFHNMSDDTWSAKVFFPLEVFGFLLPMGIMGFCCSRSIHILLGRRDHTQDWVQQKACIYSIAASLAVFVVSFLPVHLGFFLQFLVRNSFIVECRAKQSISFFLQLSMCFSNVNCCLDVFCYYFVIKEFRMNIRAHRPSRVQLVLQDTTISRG

[2] = target: Glyceraldehyde-3-phosphate dehydrogenase (Homo sapiens, UniProt P04406)
Glyceraldehyde-3-phosphate dehydrogenase, sequence (P04406 whole entry): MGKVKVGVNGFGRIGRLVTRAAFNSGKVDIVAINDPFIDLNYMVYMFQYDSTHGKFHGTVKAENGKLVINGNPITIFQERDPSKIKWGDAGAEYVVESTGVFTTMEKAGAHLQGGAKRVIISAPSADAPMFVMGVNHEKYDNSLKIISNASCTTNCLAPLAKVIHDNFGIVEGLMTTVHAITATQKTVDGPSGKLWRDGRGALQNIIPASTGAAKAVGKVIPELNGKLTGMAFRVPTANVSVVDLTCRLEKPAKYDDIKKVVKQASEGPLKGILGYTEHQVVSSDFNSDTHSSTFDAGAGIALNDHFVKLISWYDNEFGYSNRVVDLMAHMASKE

[3] = target: T1, Alkaline phosphatase, tissue-nonspecific isozyme (Homo sapiens, UniProt P05186); assay: human TNAP enzyme inhibitors, SAR follow-up, biochemical, luminescent, dose response (AID 1056)
T1 sequence (P05186 whole entry): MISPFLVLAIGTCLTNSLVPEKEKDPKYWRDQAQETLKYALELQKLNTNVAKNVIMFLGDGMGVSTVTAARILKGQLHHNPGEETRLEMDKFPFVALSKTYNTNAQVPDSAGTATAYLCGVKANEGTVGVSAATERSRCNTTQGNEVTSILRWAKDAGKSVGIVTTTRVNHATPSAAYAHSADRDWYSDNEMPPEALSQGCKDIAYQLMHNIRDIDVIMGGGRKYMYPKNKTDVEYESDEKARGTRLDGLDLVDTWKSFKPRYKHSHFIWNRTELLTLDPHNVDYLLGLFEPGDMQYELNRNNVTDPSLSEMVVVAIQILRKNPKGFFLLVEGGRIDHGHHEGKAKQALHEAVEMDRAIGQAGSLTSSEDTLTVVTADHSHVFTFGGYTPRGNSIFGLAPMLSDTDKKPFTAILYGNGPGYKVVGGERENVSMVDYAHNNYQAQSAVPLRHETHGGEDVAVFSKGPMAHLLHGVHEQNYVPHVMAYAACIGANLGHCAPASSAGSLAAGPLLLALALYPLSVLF

[4] = inhibitors of intracellular T. cruzi replication, confirmation, NIH3T3 host cells, beta-gal luminescence (AID 2044); format: functional, cell-based;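 note: intracellular parasites grown in NIH/3T3 mouse fibroblasts as host cells; luminescent beta-galactosidase reporter signal from transgenic T. cruzi replicating inside host cells; inhibitors lower the luminescence signal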
[5] = cytotoxicity toward NIH3T3 fibroblasts, dose response, counter-screen, cell-based, ATP luminescence, mouse fibroblasts (AID 2010); format: functional;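 note: cells exposed to compound for about 90 hours before reading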
[6] = target: Cytochrome P450 2C19 (Homo sapiens, UniProt P33261); assay: Cytochrome panel assay with activity outcomes. Panel member name: p450-cyp2c19 Compounds with AC50 equal or less than 10 uM are considered active; format: functional; details: read-out: AC50
[7] = target: Glucose-6-phosphate 1-dehydrogenase (Homo sapiens, UniProt P11413); assay: human G6PD enzyme inhibitors, dose response, selectivity assay for P. falciparum G6PD inhibitor project, biochemical, fluorescence (AID 504792); format: functional
Glucose-6-phosphate 1-dehydrogenase, sequence (P11413 whole entry): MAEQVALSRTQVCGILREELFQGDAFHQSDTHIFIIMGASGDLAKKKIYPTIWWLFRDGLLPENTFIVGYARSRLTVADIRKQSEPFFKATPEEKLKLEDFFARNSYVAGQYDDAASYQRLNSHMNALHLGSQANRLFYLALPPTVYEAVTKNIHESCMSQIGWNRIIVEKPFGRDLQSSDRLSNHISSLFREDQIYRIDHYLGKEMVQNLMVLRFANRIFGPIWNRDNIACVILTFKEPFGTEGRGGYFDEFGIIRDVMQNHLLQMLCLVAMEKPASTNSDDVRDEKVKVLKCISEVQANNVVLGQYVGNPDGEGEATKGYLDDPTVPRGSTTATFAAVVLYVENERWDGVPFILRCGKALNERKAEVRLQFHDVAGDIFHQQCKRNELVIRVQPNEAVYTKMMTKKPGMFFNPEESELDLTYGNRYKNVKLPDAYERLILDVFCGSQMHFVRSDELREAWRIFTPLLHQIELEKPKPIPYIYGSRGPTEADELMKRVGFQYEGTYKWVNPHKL

[8] = target: Mu-type opioid receptor (Homo sapiens, UniProt P35372); assay: HTS Image-Based Screen for Agonists of the MOR Receptor. [Related pubchem assays (depositor defined):AID1777, AID1785, AID1786, AID2133]; format: functional;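 note: imaging of beta-arrestin GFP recruitment into spots after receptor activation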
Mu-type opioid receptor, sequence (P35372 whole entry): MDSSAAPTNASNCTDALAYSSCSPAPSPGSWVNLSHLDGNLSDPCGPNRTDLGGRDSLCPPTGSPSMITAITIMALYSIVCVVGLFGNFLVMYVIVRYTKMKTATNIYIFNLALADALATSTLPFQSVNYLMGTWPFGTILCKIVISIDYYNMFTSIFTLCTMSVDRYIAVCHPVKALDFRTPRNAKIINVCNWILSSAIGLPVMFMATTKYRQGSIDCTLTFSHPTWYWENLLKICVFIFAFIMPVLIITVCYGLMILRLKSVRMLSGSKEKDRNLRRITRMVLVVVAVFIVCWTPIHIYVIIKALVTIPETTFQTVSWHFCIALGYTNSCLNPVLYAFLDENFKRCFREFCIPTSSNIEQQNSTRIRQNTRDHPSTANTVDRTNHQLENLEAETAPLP

[9] = target: T2, Kappa-type opioid receptor (Homo sapiens, UniProt P41145); format: functional
T2 sequence (P41145 whole entry): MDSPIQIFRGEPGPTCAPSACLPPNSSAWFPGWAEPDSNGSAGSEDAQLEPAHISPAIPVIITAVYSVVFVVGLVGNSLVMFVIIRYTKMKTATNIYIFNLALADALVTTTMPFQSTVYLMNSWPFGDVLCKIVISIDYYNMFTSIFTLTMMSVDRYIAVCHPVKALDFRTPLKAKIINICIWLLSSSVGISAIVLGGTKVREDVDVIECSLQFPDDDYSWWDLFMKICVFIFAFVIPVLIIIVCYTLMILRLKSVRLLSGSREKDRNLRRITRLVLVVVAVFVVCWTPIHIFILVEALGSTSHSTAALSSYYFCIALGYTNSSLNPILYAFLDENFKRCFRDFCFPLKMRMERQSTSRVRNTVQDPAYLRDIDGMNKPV

[10] = target: T3, Delta-type opioid receptor (Homo sapiens, UniProt P41143); assay: HTS Image-Based Screen for Agonists of the DOR Receptor. [Related pubchem assays (depositor defined):AID1777, AID1786, AID2133]; format: functional
T3 sequence (P41143 whole entry): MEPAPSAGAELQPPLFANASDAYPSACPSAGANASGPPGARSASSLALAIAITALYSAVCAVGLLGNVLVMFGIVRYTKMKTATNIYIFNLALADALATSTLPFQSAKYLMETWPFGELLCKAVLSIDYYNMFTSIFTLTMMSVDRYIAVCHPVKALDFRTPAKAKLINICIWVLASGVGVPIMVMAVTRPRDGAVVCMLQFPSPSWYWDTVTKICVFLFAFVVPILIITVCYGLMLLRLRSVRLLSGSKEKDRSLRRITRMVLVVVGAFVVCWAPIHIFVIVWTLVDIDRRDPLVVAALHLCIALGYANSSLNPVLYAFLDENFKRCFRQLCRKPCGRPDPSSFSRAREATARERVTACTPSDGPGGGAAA

[11] = target: T3, Delta-type opioid receptor; assay: HTS Image-Based Screen for Antagonists of the DOR Receptor. [Related pubchem assays (depositor defined):AID1777, AID1785, AID1786, AID2133]; format: functional
[12] = target: T2, Kappa-type opioid receptor; format: functional; remark: listed apart in the source
[13] = target: Beta-galactosidase (Escherichia coli, UniProt Q8VNN2); format: functional
Beta-galactosidase, sequence (Q8VNN2 whole entry): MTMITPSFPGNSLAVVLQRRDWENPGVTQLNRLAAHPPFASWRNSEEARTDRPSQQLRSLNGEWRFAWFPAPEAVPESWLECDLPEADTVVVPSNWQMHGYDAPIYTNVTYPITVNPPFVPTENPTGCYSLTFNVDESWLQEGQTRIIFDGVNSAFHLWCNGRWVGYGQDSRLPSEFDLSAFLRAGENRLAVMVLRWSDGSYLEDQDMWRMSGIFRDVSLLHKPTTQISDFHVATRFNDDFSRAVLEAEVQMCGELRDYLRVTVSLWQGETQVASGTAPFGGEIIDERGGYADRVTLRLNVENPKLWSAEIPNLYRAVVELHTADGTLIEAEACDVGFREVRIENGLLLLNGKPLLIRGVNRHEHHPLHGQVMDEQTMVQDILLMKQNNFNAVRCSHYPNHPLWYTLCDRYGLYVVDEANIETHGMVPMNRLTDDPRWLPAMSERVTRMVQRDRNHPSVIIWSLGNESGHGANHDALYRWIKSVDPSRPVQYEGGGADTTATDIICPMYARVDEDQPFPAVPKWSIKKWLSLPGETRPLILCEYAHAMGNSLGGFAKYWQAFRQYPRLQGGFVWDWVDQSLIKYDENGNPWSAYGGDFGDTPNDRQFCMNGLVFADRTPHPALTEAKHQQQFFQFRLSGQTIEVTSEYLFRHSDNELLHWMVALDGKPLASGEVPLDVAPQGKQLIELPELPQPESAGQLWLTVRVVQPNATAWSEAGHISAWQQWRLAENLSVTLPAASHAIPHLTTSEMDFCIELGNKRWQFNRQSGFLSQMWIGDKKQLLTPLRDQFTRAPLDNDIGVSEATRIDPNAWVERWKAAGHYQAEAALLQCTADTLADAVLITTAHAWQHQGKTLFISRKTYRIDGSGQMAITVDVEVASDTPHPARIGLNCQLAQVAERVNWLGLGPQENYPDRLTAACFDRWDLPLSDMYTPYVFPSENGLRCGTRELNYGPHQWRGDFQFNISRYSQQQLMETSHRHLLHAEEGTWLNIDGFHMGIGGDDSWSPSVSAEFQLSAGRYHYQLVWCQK

[14] = target: T4, Short transient receptor potential channel 4 (Mus musculus, UniProt Q9QUQ5); assay: mouse TRPC4 channel inhibitors, dose response, cell-based, HEK293 TRPC4/mu-opioid, Fluo-4 calcium (AID 434942); format: functional;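 note: potency of inhibitors blocking the TRPC4 calcium response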
T4 sequence (Q9QUQ5 whole entry): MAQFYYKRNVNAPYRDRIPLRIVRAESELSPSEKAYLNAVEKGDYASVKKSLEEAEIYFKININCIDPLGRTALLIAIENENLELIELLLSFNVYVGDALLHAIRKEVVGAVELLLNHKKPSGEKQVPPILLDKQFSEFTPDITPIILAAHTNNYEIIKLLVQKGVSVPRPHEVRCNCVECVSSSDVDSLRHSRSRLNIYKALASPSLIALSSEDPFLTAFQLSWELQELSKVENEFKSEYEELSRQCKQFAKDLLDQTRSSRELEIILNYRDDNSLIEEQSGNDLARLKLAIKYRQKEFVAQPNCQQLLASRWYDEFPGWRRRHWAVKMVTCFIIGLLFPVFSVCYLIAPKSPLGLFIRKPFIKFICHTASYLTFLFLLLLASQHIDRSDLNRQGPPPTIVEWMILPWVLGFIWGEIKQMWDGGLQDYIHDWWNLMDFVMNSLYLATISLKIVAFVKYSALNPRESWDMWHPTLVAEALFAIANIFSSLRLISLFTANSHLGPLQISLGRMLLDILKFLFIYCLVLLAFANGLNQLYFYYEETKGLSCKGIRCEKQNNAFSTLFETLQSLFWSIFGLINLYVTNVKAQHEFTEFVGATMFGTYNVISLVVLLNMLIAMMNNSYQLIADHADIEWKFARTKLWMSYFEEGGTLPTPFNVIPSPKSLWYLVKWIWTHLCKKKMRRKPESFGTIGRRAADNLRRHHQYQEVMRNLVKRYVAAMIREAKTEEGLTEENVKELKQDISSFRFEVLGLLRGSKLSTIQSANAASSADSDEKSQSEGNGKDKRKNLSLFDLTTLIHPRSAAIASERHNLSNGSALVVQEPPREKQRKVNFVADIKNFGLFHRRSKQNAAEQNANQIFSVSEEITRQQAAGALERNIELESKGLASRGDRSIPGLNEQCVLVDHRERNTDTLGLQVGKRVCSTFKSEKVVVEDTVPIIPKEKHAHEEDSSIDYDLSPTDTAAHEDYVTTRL

[15] = target: Heat shock protein HSP 90-alpha (Homo sapiens, UniProt P07900); format: functional, organism-based
[16] = target: T5, SUMO-activating enzyme (Homo sapiens, UniProt Q9UBT2); assay: inhibitors of in vitro SUMOylation cascade, primary screen, biochemical, HTRF, uHTS (AID 2006); format: protein-complex assay
T5 sequence (Q9UBE0 whole entry): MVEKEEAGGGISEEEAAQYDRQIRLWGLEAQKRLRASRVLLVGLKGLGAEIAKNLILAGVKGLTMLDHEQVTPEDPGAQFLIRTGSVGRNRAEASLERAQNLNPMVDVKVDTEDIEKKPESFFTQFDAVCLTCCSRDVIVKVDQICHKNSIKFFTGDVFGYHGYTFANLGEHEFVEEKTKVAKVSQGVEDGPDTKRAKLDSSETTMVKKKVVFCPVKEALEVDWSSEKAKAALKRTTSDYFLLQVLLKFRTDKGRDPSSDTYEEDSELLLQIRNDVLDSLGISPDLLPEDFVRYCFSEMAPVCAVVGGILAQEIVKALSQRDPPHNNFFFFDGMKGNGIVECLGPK
T5 sequence (Q9UBT2 whole entry): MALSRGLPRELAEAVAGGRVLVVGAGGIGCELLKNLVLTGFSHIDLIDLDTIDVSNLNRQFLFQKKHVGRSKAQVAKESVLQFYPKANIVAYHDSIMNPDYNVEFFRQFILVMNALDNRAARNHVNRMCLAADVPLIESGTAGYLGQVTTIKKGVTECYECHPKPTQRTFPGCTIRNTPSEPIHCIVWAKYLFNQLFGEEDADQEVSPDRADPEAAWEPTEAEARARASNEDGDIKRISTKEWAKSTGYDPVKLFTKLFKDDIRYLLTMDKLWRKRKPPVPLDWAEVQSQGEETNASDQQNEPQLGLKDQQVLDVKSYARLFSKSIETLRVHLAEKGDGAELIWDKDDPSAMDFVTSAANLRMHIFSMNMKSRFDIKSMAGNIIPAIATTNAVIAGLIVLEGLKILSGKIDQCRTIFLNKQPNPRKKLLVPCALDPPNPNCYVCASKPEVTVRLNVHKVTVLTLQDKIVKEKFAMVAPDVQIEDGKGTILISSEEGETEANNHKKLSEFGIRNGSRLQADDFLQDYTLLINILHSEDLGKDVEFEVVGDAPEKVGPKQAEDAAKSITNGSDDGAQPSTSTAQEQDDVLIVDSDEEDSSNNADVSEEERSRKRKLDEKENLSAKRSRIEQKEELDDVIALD

[17] = target: T5, SUMO-activating enzyme; assay: SUMOylation inhibitor hit validation, confirmation, SUMOylation inhibitor project, biochemical, AlphaScreen (AID 2018); format: functional
[18] = target: T4, Short transient receptor potential channel 4; assay: mouse TRPC4 channel activators, dose response, cell-based, HEK293 TRPC4/mu-opioid, Fluo-4 calcium (AID 434937); format: functional
[19] = target: T6, CAAX prenyl protease 2 (Saccharomyces cerevisiae S288c, UniProt Q03530); format: biochemical
T6 sequence (Q03530 whole entry): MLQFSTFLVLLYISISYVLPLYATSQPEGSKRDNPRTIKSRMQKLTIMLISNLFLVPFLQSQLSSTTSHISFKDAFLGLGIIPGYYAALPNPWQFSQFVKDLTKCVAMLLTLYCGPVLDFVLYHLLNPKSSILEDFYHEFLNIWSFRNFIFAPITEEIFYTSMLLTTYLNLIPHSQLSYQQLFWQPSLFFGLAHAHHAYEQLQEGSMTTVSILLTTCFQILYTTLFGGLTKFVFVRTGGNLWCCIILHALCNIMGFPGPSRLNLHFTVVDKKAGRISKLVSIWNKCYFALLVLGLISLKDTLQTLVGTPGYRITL

[20] = target: T7, RNA-binding protein pos-1 (Caenorhabditis elegans, UniProt G5EF15); assay: inhibitors of POS-1/mex-3 RNA binding, dose response, biochemical, fluorescence polarization (AID 1964);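 note: purified POS-1 fused to maltose binding protein made in E. coli; potency of compounds blocking POS-1 binding to fluorescent RNA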
T7 sequence (G5EF15 whole entry): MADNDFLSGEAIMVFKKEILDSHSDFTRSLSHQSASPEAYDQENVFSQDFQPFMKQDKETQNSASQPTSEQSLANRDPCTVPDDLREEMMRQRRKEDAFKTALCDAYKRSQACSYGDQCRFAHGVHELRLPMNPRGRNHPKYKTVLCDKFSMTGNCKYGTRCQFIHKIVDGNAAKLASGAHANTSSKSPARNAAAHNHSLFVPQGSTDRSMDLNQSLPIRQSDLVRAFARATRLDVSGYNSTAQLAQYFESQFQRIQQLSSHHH

[21] = Shn3 3'UTR reporter inhibitors, dose response, cell-based, Clone20 osteoblasts, firefly luciferase, cherry-picked (AID 624132); format: functional;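 note: firefly luciferase luminescence from reporter carrying the Shn3 3'UTR in osteoblasts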
[22] = target: T8, Zinc finger protein mex-5 (Caenorhabditis elegans, UniProt Q9XUB2); assay: MEX-5/TCR-2 RNA interaction inhibitors, dose response, biochemical, C. elegans, fluorescence polarization (AID 1960)
T8 sequence (Q9XUB2 whole entry): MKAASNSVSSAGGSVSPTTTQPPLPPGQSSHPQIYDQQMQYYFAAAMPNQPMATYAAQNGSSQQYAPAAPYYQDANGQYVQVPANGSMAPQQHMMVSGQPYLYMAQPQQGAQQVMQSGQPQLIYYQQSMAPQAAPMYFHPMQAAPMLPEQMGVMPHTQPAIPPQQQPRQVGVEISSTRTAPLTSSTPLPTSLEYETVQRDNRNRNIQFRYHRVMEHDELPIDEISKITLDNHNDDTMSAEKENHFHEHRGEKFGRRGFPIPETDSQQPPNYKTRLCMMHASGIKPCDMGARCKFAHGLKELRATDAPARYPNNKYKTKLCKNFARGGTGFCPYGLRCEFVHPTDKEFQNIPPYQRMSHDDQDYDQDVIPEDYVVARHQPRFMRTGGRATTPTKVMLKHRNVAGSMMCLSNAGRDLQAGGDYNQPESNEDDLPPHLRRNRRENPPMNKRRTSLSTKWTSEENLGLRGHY

[23] = Luminescence Cell-Based Dose Confirmation HTS to Identify Inhibitors of Platelet Dense Granule Release. [Related pubchem assays: 1663 (Primary HTS), 1678 (Summary of Project)]; format: functional
[24] = target: Luciferin 4-monooxygenase (Photinus pyralis, UniProt P08659); assay: firefly luciferase enzyme inhibitors, dose response, biochemical, luminescence (AID 1891)
Luciferin 4-monooxygenase, sequence (P08659 whole entry): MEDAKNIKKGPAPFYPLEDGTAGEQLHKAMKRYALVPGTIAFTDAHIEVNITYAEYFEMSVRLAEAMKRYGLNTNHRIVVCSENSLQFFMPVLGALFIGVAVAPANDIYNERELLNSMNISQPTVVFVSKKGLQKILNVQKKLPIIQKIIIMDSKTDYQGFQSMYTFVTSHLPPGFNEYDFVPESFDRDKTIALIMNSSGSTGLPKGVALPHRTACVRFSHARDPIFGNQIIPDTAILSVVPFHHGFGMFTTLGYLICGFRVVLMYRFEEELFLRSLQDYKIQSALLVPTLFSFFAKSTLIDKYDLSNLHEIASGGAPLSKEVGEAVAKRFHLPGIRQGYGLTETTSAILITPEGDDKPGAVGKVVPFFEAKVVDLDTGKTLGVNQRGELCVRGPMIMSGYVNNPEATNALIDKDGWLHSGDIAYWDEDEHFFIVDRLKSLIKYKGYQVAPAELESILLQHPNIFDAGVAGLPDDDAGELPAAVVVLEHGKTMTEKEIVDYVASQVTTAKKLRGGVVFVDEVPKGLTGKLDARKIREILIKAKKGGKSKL

[25] = A Cell Based Secondary Assay To Explore Cytotoxicity of Compounds that Sensitize Mycobacterium Tuberculosis to Beta-Lactam Antibiotics.; format: functional
[26] = HepG2 cell cytotoxicity, dose response, cytotoxicity control for Shn3 inhibitor project, CellTiter-Glo, cherry-picked (AID 624134); format: functional, cell-based

CC(C)(C)n1nnnc1C(c1cccs1)N(Cc1ccccc1)Cc1cccnc1 (stereo unspecified)
IC50 [1]: 7.73 µM (active)

CC(C)(C)C(=O)COC(=O)c1cc(-c2ccc(Br)cc2)n[nH]1
IC50 [2]: > 100 µM (not active) | IC50 [3]: > 100 µM (inactive)

O=C(CC12CC3CC(CC(C3)C1)C2)NC(=S)NCc1ccco1
IC50 [1]: 0.969 µM (active) | EC50 [4]: 2.29 µM (active) | EC50 [5]: > 60 µM (inconclusive)

CC(C)c1nnc(NC(=O)c2sc3ccccc3c2Cl)s1
AC50 [6]: 22.4 µM (inconclusive) | IC50 [7]: 67.9 µM (inactive)

CCCCN(CCCNC(=O)C1CCN(S(=O)(=O)N2CCOCC2)CC1)c1ccccc1
EC50 [8]: > 32 µM (inactive) | IC50 [9]: 25.3 µM (inactive) | EC50 [10]: > 32 µM (inactive) | IC50 [11]: > 32 µM (inactive) | pIC50 [12]: 5.34 | EC50 [13]: > 31.5 µM (inactive)

CC1CCN(CCOCCOc2ccccc2-c2ccccc2)CC1
EC50 [14]: 2.99 µM (active)

Cc1ccc(S(=O)(=O)N2CCN(c3nc(C)c4c(c3C#N)CC(C)(C)OC4)CC2)cc1
IC50 [1]: 10.9 µM (inactive)

CCC1=NN2C(=N)/C(=C\c3cccn3-c3ccc(C)cc3C)C(=O)N=C2S1
AC50 [15]: 8.16 µM (active)

Fc1ccccc1CNCCC(Cc1ccccc1)c1ccc2c(c1)OCO2 (stereo unspecified)
EC50 [14]: 13.3 µM (active)

Cn1c(CNc2ccc(Cl)cc2)nnc1SCc1ccccc1
AC50 [15]: 4.08 µM (active)

Cc1ccc(NC(=O)COc2ccc(/C=C3/NC(=O)NC3=O)cc2)cc1
IC50 [16]: 17.1 µM (active) | IC50 [17]: 19.2 µM (active)

COc1ccc(C(CNC(=O)c2cccc3cccnc23)N(C)C)cc1 (stereo unspecified)
EC50 [18]: 1.19 µM (active) | EC50 [14]: 0.531 µM (active)

COCCNc1c2c(nc3ccccc13)CCC2
EC50 [14]: 5.96 µM (active)

Cc1cc(OCC(=O)Nc2ccc(S(=O)(=O)N3CCN(C)CC3)cc2)cc(C)c1Cl
EC50 [8]: > 32 µM (inactive) | IC50 [9]: 7.36 µM (active) | EC50 [10]: > 32 µM (inactive) | IC50 [11]: > 32 µM (inactive) | pIC50 [12]: < 4.49 | EC50 [13]: > 31.5 µM (inactive)

O=C1c2ccccc2C(=O)N1c1nnc[nH]1
IC50 [2]: > 100 µM (not active) | IC50 [3]: > 100 µM (inactive)

CCN1CCN(c2ncnc3sc(C)c(-c4ccccc4)c23)CC1
EC50 [18]: 5.96 µM (active)

CS(=O)(=O)c1ccc(C(=O)OCC(=O)N(CCc2ccccc2)Cc2ccccc2)cc1
AC50 [19]: 7.85 µM (active)

CN(C)c1ccc(/C=C/c2nc3ccccc3s2)cc1
EC50 [20]: > 300 µM (not active) | AC50 [21]: 0.494 µM (active) | EC50 [22]: > 300 µM (not active) | EC50 [23]: 4.65 µM (active) | EC50 [24]: 1.43 µM (active) | CC50 [25]: 25.3 µM (active) | AC50 [26]: 25.6 µM (active)
